Measured values published in patent US7319103B2, “Non-imidazole tertiary amines as histamine 3 receptor inhibitors for the treatment of cognitive and sleep disorders, obesity and other CNS disorders” (Athersys, Inc., priority 2004, dated 2008).

Legend:
mouse H3 receptor = mouse H3 receptor (Mus musculus, UniProt P58406); experiment: Radioligand competition binding assay, mouse H3 receptor; details: competition binding vs [3H]Nα-methylhistamine (~2 nM), membranes of cells expressing mouse H3 receptor
Procedure: (§1) Representative compounds of the present invention that were prepared by the procedures of the Examples were evaluated in binding assays against cells expressing the mouse and human H3 receptor by the following procedure.
(§2) Cells were washed with cold PBS buffer twice, scraped off the plates, and centrifuged at 1000×g for 5 minutes. Cells were resuspended in ice-cold buffer of 10 mM Tris, pH 7.4, 5 mM EDTA, protease inhibitor cocktail tablets (Roche Molecular Biochemicals) and incubated on ice for 10 minutes. The mixture was then homogenized with a dounce homogenizer or a polytron tissue grinder and centrifuged at 1000×g for 10 min at 4° C. The supernatant was centrifuged at 32,000×g for 30 min at 4° C. The membrane pellet was resuspended in a buffer of 50 mM Tris, pH 7.4 with protease inhibitor cocktail tablets and stored at −80° C. until use. Protein concentration was determined by the methods of Bradford.
(§3) Membranes were homogenized in buffer containing 50 mM Tris/HCl, 1 mM EDTA pH 7.4, and protease inhibitor cocktail tablets. Dissociation constants of radioligand (KD values) and maximum binding sites (Bmax) were determined in saturation binding experiments. Ki and IC50 were determined in competition binding assays using a fixed amount of radioligand.
(§4) Saturation binding assays were carried out in 96-well polypropylene plates in triplicate or quadruplicate. Reaction mixtures contained 100 μl of membrane suspension (˜100 μg/well), 50 μl of 4% DMSO, 50 μl of increasing amounts of [^3H]N^α-methylhistamine (final concentration of 0.01-20 nM). Nonspecific binding was defined with 10 uM clobenpropit. Competition binding assays were performed in a reaction mixture containing 100 μl of membrane suspension, 50 μl of [H]N^α-methylhistamine (final concentration of ˜2 nM), and 50 μl compounds. […] Incubations were carried out for 1.5 hours at room temperature. Reactions were terminated by rapid filtration over glass fibre GF/C filters (Perkin Elmers, MA) that had been presoaked in 0.3% PEI, using a Brandel cell harvester. The filters were washed with 500 ml of ice-cold buffer containing 50 mM Tris-HCl, pH 7.4, and were subsequently dried, impregnated with Meltilex wax scintillate (Perkin Elmers, MA) and counted with a Betaplate scintillation counter (Perkin Elmers, MA).
(§5) All data were analyzed by nonlinear least square curve fitting using Prism 4.0 software. The KD for [^3H]N^α-methylhistamine and the Bmax were derived from equation RL=RfL/(KD+L). RL is concentration of receptor-bound ligand at equilibrium, L is the free ligand concentration, Rf is the total receptor concentration. For competition binding experiments, IC50 (the concentration of compound producing 50% inhibition of specific binding) was derived from fitting to a 4-parameter logistic equation. Apparent Ki values were calculated using the Cheng-Prussof equation of Ki=IC50/(1+(L)/Kd), L is the ligand concentration. Agonist stimulation and antagonist inhibition in FLIPR were fitted to sigmoidal dose response using equation Y=Bottom+(Top-Bottom)/(1+10^((LogEC50-X))), X is the logarithm of concentration of compounds. Y is the response.

human H3 receptor = molecular target: T1, human H3 receptor (Homo sapiens, UniProt Q9Y5N1); experiment: Radioligand competition binding assay, human H3 receptor (HT1080 cell membranes); details: competition binding vs [3H]Nα-methylhistamine (~2 nM), membranes of HT1080 cells expressing human H3 receptor
T1 construct: Expression of this receptor was provided by utilization of the RAGE methodology; endogenous in cells; host or cells: HT1080 (human fibrosarcoma) cells, H3 expression switched on by RAGE; co-transfected with chimeric G-protein Gqαi5
Procedure: as §1
An HT1080 cell line was produced that expresses the human H3 receptor. Expression of this receptor was provided by utilization of the RAGE methodology (Harrington et al., 2001) Nature Biotechol. 19:440-5. This cell line was transfected with the chimeric G-protein Gqαi5 (Conklin et al., 1993) Nature 363:274-6 to facilitate assessment of receptor activation through the analysis of intercellular Ca^++ levels using a fluorescence assay. The HT1080 cells expressing human histamine H3 receptor and Gqαi5 were grown in alpha-modified MEM containing 10% FBS, 3 ug/ml puromycin, 7 ug/ml blasticidin, and 3.2 uM methotrexate at 37° C. in 5% CO2/95% atmosphere.
as §2, §3, §4, §5

T1 sequence (Q9Y5N1 whole entry): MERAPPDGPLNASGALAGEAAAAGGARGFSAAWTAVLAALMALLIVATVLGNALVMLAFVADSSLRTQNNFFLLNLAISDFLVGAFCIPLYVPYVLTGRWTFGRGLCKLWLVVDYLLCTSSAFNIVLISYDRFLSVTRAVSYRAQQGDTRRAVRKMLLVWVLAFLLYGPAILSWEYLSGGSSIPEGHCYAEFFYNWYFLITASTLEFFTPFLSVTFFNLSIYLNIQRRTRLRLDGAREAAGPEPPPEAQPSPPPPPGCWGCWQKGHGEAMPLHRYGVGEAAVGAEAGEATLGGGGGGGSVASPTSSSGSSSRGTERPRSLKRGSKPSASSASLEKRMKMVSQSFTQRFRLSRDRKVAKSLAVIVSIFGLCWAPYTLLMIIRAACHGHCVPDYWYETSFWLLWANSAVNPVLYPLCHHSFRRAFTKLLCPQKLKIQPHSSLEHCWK
mouse H3 receptor, sequence (P58406 whole entry): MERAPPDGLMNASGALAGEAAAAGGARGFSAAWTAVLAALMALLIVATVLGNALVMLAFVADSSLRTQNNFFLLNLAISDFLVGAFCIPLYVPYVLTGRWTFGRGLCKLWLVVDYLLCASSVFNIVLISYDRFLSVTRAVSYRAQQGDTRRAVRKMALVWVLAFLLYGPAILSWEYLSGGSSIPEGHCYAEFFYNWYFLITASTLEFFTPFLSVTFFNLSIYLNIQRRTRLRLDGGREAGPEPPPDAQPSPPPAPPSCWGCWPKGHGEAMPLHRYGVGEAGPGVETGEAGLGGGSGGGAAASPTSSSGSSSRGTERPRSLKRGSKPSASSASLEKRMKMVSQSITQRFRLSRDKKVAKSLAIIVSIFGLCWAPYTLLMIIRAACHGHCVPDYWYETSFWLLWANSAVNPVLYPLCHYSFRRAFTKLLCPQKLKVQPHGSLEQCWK

Row | Ki (mouse H3 receptor) | Ki (human H3 receptor) | Structure (SMILES)
1 | < 500 nM | < 50 nM | O[C@H]1CCN(CCc2cc3cc(-c4c5c(nc6ccnn46)CCC5)ccc3o2)C1 [1-{2-[5-(6,7-Dihydro-5H-1,4,8a-triaza-s-indacen-8-yl)-benzofuran-2-yl]-ethyl}-pyrrolidin-3-(S)-ol]
2 | < 500 nM | < 50 nM | c1cc2nc3c(c(-c4ccc5oc(CCN6CCOCC6)cc5c4)n2n1)CCC3 [8-[2-(2-Morpholin-4-yl-ethyl)-benzofuran-5-yl]-6,7-dihydro-5H-1,4,8a-triaza-s-indacene]
3 | < 500 nM | < 50 nM | c1cc2nc3c(c(-c4ccc5oc(CCN6CCCCC6)cc5c4)n2n1)CCC3 [8-[2-(2-Piperidin-1-yl-ethyl)-benzofuran-5-yl]-6,7-dihydro-5H-1,4,8a-triaza-s-indacene]
4 | < 500 nM | < 50 nM | c1cc2nc3c(c(-c4ccc5oc(CCN6CCCC6)cc5c4)n2n1)CCC3 [8-[2-(2-Pyrrolidin-1-yl-ethyl)-benzofuran-5-yl]-6,7-dihydro-5H-1,4,8a-triaza-s-indacene]
5 | < 50 nM | < 50 nM | c1cc2nc3c(c(-c4ccc(OCCCN5CCCCC5)cc4)n2n1)CCC3 [8-[4-(3-Piperidin-1-yl-propoxy)-phenyl]-6,7-dihydro-5H-1,4,8a-triaza-s-indacene]
6 | < 50 nM | < 50 nM | c1cc2nc3c(c(-c4ccc(OCCCN5CCCC5)cc4)n2n1)CCC3 [8-[4-(3-Pyrrolidin-1-yl-propoxy)-phenyl]-6,7-dihydro-5H-1,4,8a-triaza-s-indacene]
7 | < 50 nM | < 50 nM | C[C@@H]1CCCN1CCc1cc2cc(-c3c4c(nc5ccnn35)CCC4)ccc2o1 [8-{2-[2-(2-(R)-Methyl-pyrrolidin-1-yl)-ethyl]-benzofuran-5-yl}-6,7-dihydro-5H-1,4,8a-triaza-s-indacene]
8 | < 50 nM | < 50 nM | COC[C@@H]1CCCN1CCc1cc2cc(-c3c4c(nc5ccnn35)CCC4)ccc2o1 [8-{2-[2-(2-(S)-Methoxymethyl-pyrrolidin-1-yl)-ethyl]-benzofuran-5-yl}-6,7-dihydro-5H-1,4,8a-triaza-s-indacene]
9 | < 50 nM | < 50 nM | CC1CCCN1CCc1cc2cc(-c3c4c(nc5ccnn35)CCC4)ccc2o1 (centres unmarked) [8-{2-[2-(2-Methyl-pyrrolidin-1-yl)-ethyl]-benzofuran-5-yl}-6,7-dihydro-5H-1,4,8a-triaza-s-indacene]
10 | < 500 nM | < 500 nM | COC[C@H]1CCCN1CCc1cc2cc(-c3c4c(nc5ccnn35)CCC4)ccc2o1 [8-{2-[2-(R)-(2-Methoxymethyl-pyrrolidin-1-yl)-ethyl]-benzofuran-5-yl}-6,7-dihydro-5H-1,4,8a-triaza-s-indacene]
11 | < 500 nM | < 50 nM | c1cc2nc3c(c(-c4ccc5oc(CCN6CCOCC6)cc5c4)n2n1)CCCC3 [9-[2-(2-Morpholin-4-yl-ethyl)-benzofuran-5-yl]-5,6,7,8-tetrahydro-pyrazolo[5,1-b]quinazoline]
12 | < 5000 nM | < 50 nM | c1cc2nc3c(c(-c4ccc5oc(CCN6CCCCC6)cc5c4)n2n1)CCCC3 [9-[2-(2-Piperidin-1-yl-ethyl)-benzofuran-5-yl]-5,6,7,8-tetrahydro-pyrazolo[5,1-b]quinazoline]
13 | < 5000 nM | < 500 nM | c1cc2nc3c(c(-c4ccc5oc(CCN6CCCC6)cc5c4)n2n1)CCCC3 [9-[2-(2-Pyrrolidin-1-yl-ethyl)-benzofuran-5-yl]-5,6,7,8-tetrahydro-pyrazolo[5,1-b]quinazoline]
14 | < 50 nM | < 50 nM | c1cc2nc3c(c(-c4ccc(OCCCN5CCCCC5)cc4)n2n1)CCCC3 [9-[4-(3-Piperidin-1-yl-propoxy)-phenyl]-5,6,7,8-tetrahydro-pyrazolo[5,1-b]quinazoline]
15 | < 50 nM | < 50 nM | c1cc2nc3c(c(-c4ccc(OCCCN5CCCC5)cc4)n2n1)CCCC3 [9-[4-(3-Pyrrolidin-1-yl-propoxy)-phenyl]-5,6,7,8-tetrahydro-pyrazolo[5,1-b]quinazoline]
16 | < 500 nM | < 50 nM | CC1CCCN1CCc1cc2cc(-c3c4c(nc5ccnn35)CCCC4)ccc2o1 (centres unmarked) [9-{2-[2-(2-Methyl-pyrrolidin-1-yl)-ethyl]-benzofuran-5-yl}-5,6,7,8-tetrahydro-pyrazolo[5,1-b]quinazoline]

Further lines, the compound ahead of its results:

Row | Structure (SMILES) | Ki (mouse H3 receptor) | Ki (human H3 receptor)
17 | O[C@@H]1CCN(CCCOc2ccc(-c3c4c(nc5ccnn35)CCC4)cc2)C1 [1-{3-[4-(6,7-Dihydro-5H-1,4,8a-triaza-s-indacen-8-yl)-phenoxy]-propyl}-pyrrolidin-3-(R)-ol] | < 50 nM | < 50 nM
18 | O[C@H]1CCN(CCCOc2ccc(-c3c4c(nc5ccnn35)CCC4)cc2)C1 [1-{3-[4-(6,7-Dihydro-5H-1,4,8a-triaza-s-indacen-8-yl)-phenoxy]-propyl}-pyrrolidin-3-(S)-ol] | < 50 nM | < 50 nM
19 | c1cc2nc3c(c(-c4ccc(OCCCN5CCOCC5)cc4)n2n1)CCC3 [8-[4-(3-Morpholin-4-yl-propoxy)-phenyl]-6,7-dihydro-5H-1,4,8a-triaza-s-indacene] | < 500 nM | < 50 nM
20 | C[C@@H]1CCCN1CCCOc1ccc(-c2c3c(nc4ccnn24)CCC3)cc1Cl [8-{3-Chloro-4-[3-(2-(R)-methyl-pyrrolidin-1-yl)-propoxy]-phenyl}-6,7-dihydro-5H-1,4,8a-triaza-s-indacene] | < 50 nM | < 50 nM
21 | CC1CCCN1CCCOc1ccc(-c2c3c(nc4ccnn24)COC3)cc1 (centres unmarked) [8-{4-[3-(2-Methyl-pyrrolidin-1-yl)-propoxy]-phenyl}-5H,7H-6-oxa-1,4,8a-triaza-s-indacene] | < 50 nM | < 50 nM
22 | CC1CCCN1CCCOc1ccc(-c2c3c(nc4ccnn24)CCC3)cc1 (centres unmarked) [8-{4-[3-(2-Methyl-pyrrolidin-1-yl)-propoxy]-phenyl}-6,7-dihydro-5H-1,4,8a-triaza-s-indacene] | < 50 nM | < 50 nM
23 | c1cc2nc3c(c(-c4ccc(OCCCN5CCOCC5)cc4)n2n1)CCCC3 [9-[4-(3-Morpholin-4-yl-propoxy)-phenyl]-5,6,7,8-tetrahydro-pyrazolo[5,1-b]quinazoline] | < 50 nM | < 50 nM
24 | c1ccc2c(-c3ccc(OCCCN4CCCC4)cc3)c3c(nc2c1)CCCC3 [9-[4-(3-Pyrrolidin-1-yl-propoxy)-phenyl]-1,2,3,4-tetrahydro-acridine] | < 500 nM | < 50 nM
25 | C[C@@H]1CCCN1CCCOc1ccc(-c2c3c(nc4ccnn24)CCCC3)cc1 [9-{4-[3-(2-(R)-Methyl-pyrrolidin-1-yl)-propoxy]-phenyl}-5,6,7,8-tetrahydro-pyrazolo[5,1-b]quinazoline] | < 50 nM | < 50 nM
26 | CC1CCCN1CCCOc1cccc(-c2c3c(nc4ccnn24)CCCCC3)c1 (centres unmarked) [10-{3-[3-(2-Methyl-pyrrolidin-1-yl)-propoxy]-phenyl}-6,7,8,9-tetrahydro-5H-1,4,10a-triaza-cyclohepta[f]indene] | < 5000 nM | –
27 | COCCNCCCOc1ccc(-c2c3c(nc4ccnn24)CCCCC3)cc1 [(2-Methoxy-ethyl)-{3-[4-(6,7,8,9-tetrahydro-5H-1,4,10a-triaza-cyclohepta[f]inden-10-yl)-phenoxy]-propyl}-amine] | < 5000 nM | –
28 | CCN(CC)CCCOc1cccc(-c2c3c(nc4ccnn24)CCCCC3)c1 [Diethyl-{3-[3-(6,7,8,9-tetrahydro-5H-1,4,10a-triaza-cyclohepta[f]inden-10-yl)-phenoxy]-propyl}-amine] | < 5000 nM | –
